Tested on: tobacco budworm (Heliothis virescens [Fabricius])
Assay: surface-treated diet test against tobacco budworm
Format: in vivo
Settings: 0.25 millimoles of candidate insecticide on the surface of the diet, second instar larvae, five-day exposure; for Percent Mortality: compared to the total number of insects infested; for Percent Growth Inhibition: inhibition of insect weight relative to untreated controls
Description: Candidate insecticides were evaluated for activity against the tobacco budworm (Heliothis virescens [Fabricius]) in a surface-treated diet test.
In this test one mL of molten (65-70° C.) wheat germ-based artificial diet was pipetted into each well of a four by six (24 well) multi-well plate (ID# 430345-15.5 mm dia.×17.6 mm deep; Corning Costar Corp., One Alewife Center, Cambridge, Mass. 02140). The diet was allowed to cool to ambient temperature before treatment with candidate insecticide.
For a determination of insecticidal activity, solutions of the candidate insecticides were prepared for testing using a Packard 204DT Multiprobe® Robotic System (Packard Instrument Company, 800 Research Parkway, Meriden, Conn. 06450), in which the robot first diluted a standard 50 millimolar DMSO solution of candidate insecticide with a 1:1 water/acetone solution (V/V) in a ratio of 1:7 stock solution to water/acetone. The robot subsequently pipetted 40 microliters of the so-prepared solution onto the surface of the diet in each of three wells in the 24 multi-well plate. The process was repeated with solutions of seven other candidate insecticides. Once treated, the contents of the multi-well plate were allowed to dry, leaving 0.25 millimoles of candidate insecticide on the surface of the diet, or a concentration of 0.25 millimolar. Appropriate untreated controls containing only DMSO on the diet surface were also included in this test.
For evaluations of the insecticidal activity of a candidate insecticide at varying rates of application, the test was established as described above using sub-multiples of the standard 50 millimolar DMSO solution of candidate insecticide. For example, the standard 50 millimolar solution was diluted by the robot with DMSO to give 5, 0.5, 0.05, 0.005, 0.0005 millimolar, or more dilute solutions of the candidate insecticide. In these evaluations there were six replicates of each rate of application placed on the surface of the diet in the 24 multi-well plate, for a total of four rates of application of candidate insecticide in each plate.
In each well of the test plate was placed one second instar tobacco budworm larvea, each weighing approximately five milligrams. After the larvae were placed in each well, the plate was sealed with clear polyfilm adhesive tape. The tape over each well was perforated to ensure an adequate air supply. The plates were then held in a growth chamber at 25° C. and 60% relative humidity for five days (light 14 hours/day).
After the five-day exposure period insecticidal activity for each rate of application of candidate insecticide was assessed as percent inhibition of insect weight relative to the weight of insects from untreated controls, and percent mortality when compared to the total number of insects infested.
The test compounds of formula I are identified by numbers that correspond to those in Table 1.

Structure (SMILES)	Percent Mortality [%]	Percent Growth Inhibition [%]
O=C(c1ccc(C(F)(F)F)cc1)C1CCNCC1 [Compound 3, 4-piperidyl 4-(trfluoromethyl)phenyl ketone]	100	100
O=C(c1ccc(OC(F)(F)F)cc1)C1CCN(Cc2ccc(F)cc2)CC1 [Compound 27]	0	97
CCCOc1ccc(CN2CCC(C(=O)c3ccc(OC(F)(F)F)cc3)CC2)cc1 [Compound 43]	100	100
O=C(c1ccc(OC(F)(F)F)cc1)C1CCN(Cc2ccc(-c3ccccn3)cc2)CC1 [Compound 62]	100	95
Cn1nnc(-c2ccc(CN3CCC(C(=O)c4ccc(OC(F)(F)F)cc4)CC3)cc2)n1 [Compound 67]	100	95
CCn1nnc(-c2ccc(CN3CCC(C(=O)c4ccc(OC(F)(F)F)cc4)CC3)cc2)n1 [Compound 72, 1-{[4-(2-ethyl(1,2,3,4-tetraazol-5-yl))phenyl]methyl}(4-piperidyl)4-(trifluoromethoxy)phenyl ketone]	–	95
CC(C)NN=C(c1ccc(C(F)(F)F)cc1)C1CCN(Cc2ccc(-c3nnn(C)n3)cc2)CC1 [Compound 91]	0	79
CCn1nnc(-c2ccc(CN3CCC(C(=NNc4ccccn4)c4ccc(OC(F)(F)F)cc4)CC3)cc2)n1 [Compound 92]	0	45
CCn1nnc(-c2ccc(CN3CCC(C(=Cc4ccc(OC(F)(F)F)cc4)c4ccc(Cl)cc4)CC3)cc2)n1 [Compound 94]	100	100
COc1ccc(CN2CCC(C(=NNc3ccc(OC(F)(F)F)cc3)c3ccc(OC(F)(F)F)cc3)CC2)cc1 [Compound 96]	100	96
CCCOc1ccc(CN2CCC(C(=NNc3ccc(OC(F)(F)F)cc3)c3ccc(OC(F)(F)F)cc3)CC2)cc1 [Compound 97]	100	100
CCn1nnc(-c2ccc(CN3CCC(C(=NNc4ccc(C)cc4)c4ccc(OC(F)(F)F)cc4)CC3)cc2)n1 [Compound 113]	100	100
CCn1nnc(-c2ccc(CN3CCC(C(=NNc4ccc(C(C)C)cc4)c4ccc(OC(F)(F)F)cc4)CC3)cc2)n1 [Compound 114]	100	100
CCn1nnc(-c2ccc(CN3CCC(C(=NNc4ccc(OC)cc4)c4ccc(OC(F)(F)F)cc4)CC3)cc2)n1 [Compound 116]	100	100
CCn1nnc(-c2ccc(CN3CCC(C(=NNc4ccc(C(F)(F)F)cc4)c4ccc(C(F)(F)F)cc4)CC3)cc2)n1 [Compound 118]	100	96
CCn1nnc(-c2ccc(CN3CCC(C(=NNc4ccc(OC(F)(F)F)cc4)c4ccc(C(F)(F)F)cc4)CC3)cc2)n1 [Compound 119]	100	100
CCn1nnc(-c2ccc(CN3CCC(C(=NNc4ccccc4C(F)(F)F)c4ccc(OC(F)(F)F)cc4)CC3)cc2)n1 [Compound 120]	0	40
CCn1nnc(-c2ccc(CN3CCC(C(=NNc4cccc(C(F)(F)F)c4)c4ccc(OC(F)(F)F)cc4)CC3)cc2)n1 [Compound 121]	100	100

Structure (SMILES)	Percent Mortality [%]	Percent Growth Inhibition [%]
CCn1nnc(-c2ccc(CN3CCC(C(=NNc4ccc(C(F)(F)F)cc4)c4ccc(OC(F)(F)F)cc4)CC3)cc2)n1 [Compound 122]	100	96
Cn1nnc(-c2ccc(CN3CCC(C(=NNc4ccc(OC(F)(F)F)cc4)c4ccc(OC(F)(F)F)cc4)CC3)cc2)n1 [Compound 123]	100	100
CCn1nnc(-c2ccc(CN3CCC(C(=NNc4ccc(OC(F)(F)F)cc4)c4ccc(OC(F)(F)F)cc4)CC3)cc2)n1 [Compound 124]	100	100
CCn1nnc(-c2ccc(CN3CCC(C(=NNc4ccc(S(N)(=O)=O)cc4)c4ccc(OC(F)(F)F)cc4)CC3)cc2)n1 [Compound 125]	100	100
CCn1nnc(-c2ccc(CN3CCC(C(=NNc4ccc([N+](=O)[O-])cc4)c4ccc(OC(F)(F)F)cc4)CC3)cc2)n1 [Compound 126]	100	100
CCn1nnc(-c2ccc(CN3CCC(C(=NNCc4ccc(C(F)(F)F)cc4)c4ccc(OC(F)(F)F)cc4)CC3)cc2)n1 [Compound 127]	100	100
CCn1nnc(-c2ccc(CN3CCC(C(=NNCc4ccc(OC(F)(F)F)cc4)c4ccc(OC(F)(F)F)cc4)CC3)cc2)n1 [Compound 128]	0	96
CCn1nnc(-c2ccc(CN3CCC(C(=NNS(=O)(=O)c4ccc(C(F)(F)F)cc4)c4ccc(OC(F)(F)F)cc4)CC3)cc2)n1 [Compound 129]	100	95
CCn1nnc(-c2ccc(CN3CCC(C(=NNS(=O)(=O)c4ccc(OC(F)(F)F)cc4)c4ccc(OC(F)(F)F)cc4)CC3)cc2)n1 [Compound 130]	100	100
O=C(NN=C(c1ccc(OC(F)(F)F)cc1)C1CCN(Cc2ccc(Oc3ccccn3)cc2)CC1)c1ccc(Cl)cc1 [Compound 131]	50	100
O=C(NN=C(c1ccc(OC(F)(F)F)cc1)C1CCN(Cc2ccc(Oc3ccccn3)cc2)CC1)c1ccc(C(F)(F)F)cc1 [Compound 132]	83	100
Cn1nnc(-c2ccc(CN3CCC(C(=NNC(=O)c4ccccc4Cl)c4ccc(OC(F)(F)F)cc4)CC3)cc2)n1 [Compound 136]	76	0
Cn1nnc(-c2ccc(CN3CCC(C(=NNC(=O)c4cccc(Cl)c4)c4ccc(OC(F)(F)F)cc4)CC3)cc2)n1 [Compound 137]	100	100
Cn1nnc(-c2ccc(CN3CCC(C(=NNC(=O)c4ccc(Cl)cc4)c4ccc(Cl)cc4)CC3)cc2)n1 [Compound 138]	0	14
Cn1nnc(-c2ccc(CN3CCC(C(=NNC(=O)c4ccc(Cl)cc4)c4ccc(OC(F)(F)F)cc4)CC3)cc2)n1 [Compound 139]	100	100
Cn1nnc(-c2ccc(CN3CCC(C(=NNC(=O)c4ccc(Br)cc4)c4ccc(OC(F)(F)F)cc4)CC3)cc2)n1 [Compound 140]	100	100
Cn1nnc(-c2ccc(CN3CCC(C(=NNC(=O)c4cccc(F)c4)c4ccc(OC(F)(F)F)cc4)CC3)cc2)n1 [Compound 142]	67	100
Cn1nnc(-c2ccc(CN3CCC(C(=NNC(=O)c4ccc(F)cc4)c4ccc(OC(F)(F)F)cc4)CC3)cc2)n1 [Compound 143]	17	87
